Patent publication US20110319431A1, “Bis Aromatic Compounds for Use as LTC4 Synthase Inhibitors” (BIOLIPOX AB, priority 2009, published 2011)

Target: T1, Recombinant human LTC4 synthase (Homo sapiens, UniProt Q16873)
T1 construct: made in house; host or cells: Pichia pastoris
T1 sequence (Q16873 1-150): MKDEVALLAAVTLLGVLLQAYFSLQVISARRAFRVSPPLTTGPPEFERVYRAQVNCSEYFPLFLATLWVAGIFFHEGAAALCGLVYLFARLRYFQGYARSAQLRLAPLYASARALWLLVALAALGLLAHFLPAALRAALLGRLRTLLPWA
Test: In vitro LTC4 synthase assay (LTA4 to LTC4, HTRF detection)
Type: biochemical
Details: 5 min; total concentration of title compounds in the assay 10 μM
Procedure: In the assay, LTC4 synthase catalyses the reaction where the substrate LTA4 is converted to LTC4. Recombinant human LTC4 synthase is expressed in Piccia pastoralis and the purified enzyme is dissolved in 25 mM tris-buffer pH 7.8 supplemented with 0.1 mM glutathione (GSH) and stored at −80° C. The assay is performed in phosphate buffered saline (PBS) pH 7.4 and 5 mM GSH in 384-well plates.
The following is added chronologically to each well:
1. 48 μL LTC4 synthase in PBS with 5 mM GSH. The total protein concentration in this solution is 0.5 μg/mL. 2. 1 μL inhibitor in DMSO (final concentration 10 μM). 3. Incubation of the plate at room temperature for 10 min. 4. 1 μL LTA4 (final concentration 2.5 μM). 5. Incubation of the plate at room temperature for 5 min. 6. 10 μL of the incubation mixture is analysed using homogenous time resolved fluorescent (HTRF) detection.

| inhibition at 10 µM [%] | Compound |
| --- | --- |
| 96 | CN(c1ccc(Cl)cc1)c1ccc(C(=O)c2ccc(Sc3ccc(F)c(F)c3)c(C(=O)O)c2)cc1 [2:3, 5-{4-[(4-Chlorophenyl)(methyl)amino]benzoyl}-2-(3,4-difluorophenyl-sulfanyl)benzoic acid] |
| 99 | CN(c1ccc(Cl)cc1)c1ccc(C(=O)c2ccc([S+]([O-])c3ccc(F)c(F)c3)c(C(=O)O)c2)nc1 (centres unmarked) [Example 1:13, 5-{5-[(4-Chlorophenyl)methylamino]pyridine-2-carbonyl}-2-(3,4-difluorophenyl-sulfinyl)benzoic acid] |
| 98 | CN(c1ccc(Cl)cc1)c1ccc(C(=O)c2ccc(Sc3cccc(Cl)c3)c(C(=O)O)c2)cc1 [Example 2:2, 5-{4-[(4-Chlorophenyl)(methyl)amino]benzoyl}-2-(3-chlorophenylsulfanyl)-benzoic acid] |
| 98 | CN(c1ccc(Cl)cc1)c1ccc(C(=O)c2ccc(S(=O)(=O)c3ccc(Cl)cc3)c(C(=O)O)c2)cc1 [Example 3:2, 5-{4-[(4-Chlorophenyl)(methyl)amino]benzoyl}-2-(4-chlorophenylsulfonyl)benzoic acid] |
| 100 | CN(c1ccc(Cl)cc1)c1ccc(C(=O)c2ccc([S+]([O-])c3ccc(Cl)cc3)c(C(=O)O)c2)cc1 (centres unmarked) [Example 1:2, 5-{4-[(4-Chlorophenyl)(methyl)amino]benzoyl}-2-(4-chlorophenylsulfinyl)benzoic acid] |

Same assay, conditions: Table 4, title compounds of Example 4

| IC50 [nM] | Compound |
| --- | --- |
| 175 | CN(c1ccc(Cl)cc1)c1ccc(C(=O)c2cc(Sc3ccccc3)cc(C(=O)O)c2)cc1 [4:10, 3-{4-[(4-Chlorophenyl)(methyl)amino]benzoyl}-5-(phenysulfanyl)benzoic acid] |
| 328 | COc1ccc(Sc2cc(C(=O)O)cc(C(=O)c3ccc(N(C)c4ccc(Cl)cc4)cc3)c2)cc1OC [4:7, 3-{4-[(4-Chlorophenyl)(methyl)amino]benzoyl}-5-(3,4-dimethoxyphenyl-sulfanyl)benzoic acid] |
| 148 | CN(c1ccc(Cl)cc1)c1ccc(C(=O)c2cc(Sc3cccc(OC(F)(F)F)c3)cc(C(=O)O)c2)cc1 [4:8, 3-{4-[(4-Chlorophenyl)(methyl)amino]benzoyl}-5-(3-(trifluoromethoxy)-phenylsulfanyl)benzoic acid] |
| 135 | CN(c1ccc(Cl)cc1)c1ccc(C(=O)c2cc(Sc3ccccc3)cc(C(=O)O)c2)nc1 [4:4, 3-{5-[(4-Chlorophenyl)(methyl)amino]picolinoyl}-5-phenylsulfanylbenzoic acid] |
| 404 | CCCCCC[S+]([O-])c1cc(C(=O)O)cc(C(=O)c2ccc(N(C)c3ccc(Cl)cc3)cn2)c1 (centres unmarked) [Example 4:2, 3-{5-[(4-Chlorophenyl)(methyl)amino]picolinoyl}-5-(1-hexylsulfinyl)-benzoic acid] |

Same assay, conditions: title compounds of the Examples

| Compound | IC50 [nM] |
| --- | --- |
| CN(c1ccc(Cl)cc1)c1ccc(C(=O)c2cc(C(=O)O)cc([S+]([O-])c3ccc(F)c(F)c3)c2)cc1 (centres unmarked) [Example 1:19, 3-{4-[(4-Chlorophenyl)(methyl)amino]benzoyl}-5-(3,4-difluorophenylsulfinyl)-benzoic acid] | 212 |
| COc1cccc(Sc2cc(C(=O)O)cc(C(=O)c3ccc(N(C)c4ccc(Cl)cc4)cc3)c2)c1 [2:25, 3-(4-((4-Chlorophenyl)(methyl)amino)benzoyl)-5-(3-methoxyphenylsulfanyl)benzoic acid] | 143 |
| CN(c1ccc(Cl)cc1)c1ccc(C(=O)c2ccc([S+]([O-])C34CC5CC(CC(C5)C3)C4)c(C(=O)O)c2)cc1 (centres unmarked) [1:6, 2-(1-Adamantylsulfinyl)-5-{4-[(4-chlorophenyl)methylamino]benzoyl}benzoic acid] | 96 |
| CCCCCC[S+]([O-])c1cc(C(=O)O)cc(C(=O)c2ccc(N(C)c3ccc(Cl)cc3)cn2)c1 (centres unmarked) [Example 1:20, 3-{5-[(4-Chlorophenyl)methylamino]pyridine-2-carbonyl}-5-(1-hexylsulfinyl)-benzoic acid] | 404 |
| CCCCCCSc1cc(C(=O)O)cc(C(=O)c2ccc(N(C)c3ccc(Cl)cc3)cn2)c1 [2:23, 3-{5-[(4-Chlorophenyl)methylamino]pyridine-2-carbonyl}-5-(1-hexyl)-sulfanylbenzoic acid] | 215 |
| O=C(c1ccc(Sc2ccc(Br)cc2)c(C(=O)O)c1)c1ccc(N(CC2CC2)c2ccc(Cl)cc2)cn1 [2:17, 2-(4-Bromophenylsulfanyl)-5-{5-[(4-chlorophenyl)cyclopropylmethyl-amino]pyridine-2-carbonyl}benzoic acid] | 102 |
| CN(c1ccc(Cl)cc1)c1ccc(C(=O)c2cc(Sc3cccc(OC(F)(F)F)c3)cc(C(=O)O)c2)cc1 [2:28, 3-(4-((4-Chlorophenyl)(methyl)amino)benzoyl)-5-(3-(trifluoromethoxy)phenylsulfanyl)benzoic acid] | 148 |
| CN(c1ccc(Cl)cc1)c1ccc(C(=O)c2cc(Sc3cccc(Cl)c3)cc(C(=O)O)c2)cc1 [2:26, 3-(4-((4-Chlorophenyl)(methyl)amino)benzoyl)-5-(3-chlorophenylsulfanyl)benzoic acid] | 165 |
| CN(c1ccc(Cl)cc1)c1ccc(C(=O)c2ccc(SCC34CCC(CC3O)C4(C)C)c(C(=O)O)c2)cc1 (centres unmarked) [2:4, 5-{4-[(4-Chlorophenyl)methylamino]benzoyl}-2-(2-hydroxy-7,7-dimethyl-bicyclo[2.2.1]-1-heptylmethylsulfanyl)benzoic acid] | 130 |
| CCCCCCSc1ccc(C(=O)c2ccc(N(C)c3ccc(Cl)cc3)cn2)cc1C(=O)O [2:5] | 129 |
| CN(c1ccc(Cl)cc1)c1ccc(C(=O)c2ccc(S(=O)(=O)c3ccc(Cl)cc3)c(C(=O)O)c2)cc1 [Example 3:2, 5-{4-[(4-Chlorophenyl)(methyl)amino]benzoyl}-2-(4-chlorophenylsulfonyl)benzoic acid] | 635 |
| COc1ccc(Sc2cc(C(=O)O)cc(C(=O)c3ccc(N(C)c4ccc(Cl)cc4)cc3)c2)cc1OC [2:27, 3-(4-((4-Chlorophenyl)(methyl)amino)benzoyl)-5-(3,4-dimethoxyphenylsulfanyl)benzoic acid] | 328 |
| CCCCCCSc1ccc(C(=O)c2ccc(N(CC3CC3)c3ccc(Cl)cc3)cn2)cc1C(=O)O [2:15, 5-{5-[(4-Chlorophenyl)cyclopropylmethylamino]pyridine-2-carbonyl}-2-(1-hexylsulfanyl)benzoic acid] | 96 |
| COc1ccc(Sc2ccc(C(=O)c3ccc(OCc4cccc(Cl)c4)cn3)cc2C(=O)O)cc1 [Example 2:22, 5-[5-(3-Chlorobenzyloxy)pyridine-2-carbonyl]-2-(4-methoxyphenyl-sulfanyl)benzoic acid] | 252 |

Continued, values first:

| IC50 [nM] | Compound |
| --- | --- |
| 22 | O=C(c1ccc(Sc2ccccc2Cl)c(C(=O)O)c1)c1ccc(N(CC2CC2)c2ccc(Cl)cc2)cn1 [2:10, 5-{5-[(4-Chlorophenyl)cyclopropylmethylamino]pyridine-2-carbonyl}-2-(2-chlorophenylsulfanyl)benzoic acid] |
| 74 | O=C(c1ccc(Sc2ccc(Cl)cc2)c(C(=O)O)c1)c1ccc(N(CC2CC2)c2ccc(Cl)cc2)cn1 [2:9, 5-{5-[(4-Chlorophenyl)cyclopropylmethylamino]pyridine-2-carbonyl}-2-(4-chlorophenylsulfanyl)benzoic acid] |
| 28 | O=C(c1ccc([S+]([O-])c2cccc(C(F)(F)F)c2)c(C(=O)O)c1)c1ccc(N(CC2CC2)c2ccc(Cl)cc2)cn1 (centres unmarked) [1:15, 5-{5-[(4-Chlorophenyl)cyclopropylmethylamino]pyridine-2-carbonyl}-2-(3-tri-fluoromethylphenylsulfinyl)benzoic acid] |
| 46 | O=C(c1ccc(Sc2cccc(Cl)c2)c(C(=O)O)c1)c1ccc(N(CC2CC2)c2ccc(Cl)cc2)cn1 [2:18, 5-{5-[(4-Chlorophenyl)cyclopropylmethylamino]pyridine-2-carbonyl}-2-(3-chlorophenylsulfanyl)benzoic acid] |
| 34 | O=C(c1ccc([S+]([O-])c2ccc(Br)cc2)c(C(=O)O)c1)c1ccc(N(CC2CC2)c2ccc(Cl)cc2)cn1 (centres unmarked) [1:17, 2-(4-Bromophenylsulfinyl)-5-{5-[(4-chlorophenyl)cyclopropylmethylamino]-pyridine-2-carbonyl}benzoic acid] |
| 51 | CN(c1ccc(Cl)cc1)c1ccc(C(=O)c2ccc(Sc3ccc(F)c(F)c3)c(C(=O)O)c2)cc1 [2:3, 5-{4-[(4-Chlorophenyl)(methyl)amino]benzoyl}-2-(3,4-difluorophenyl-sulfanyl)benzoic acid] |
| 74 | O=C(c1ccc(N(CC2CC2)c2ccc(Cl)cc2)cc1)c1ccc(Sc2ccccc2)c(C(=O)O)c1 [2:8, 5-{4-[(4-Chlorophenyl)cyclopropylmethylamino]benzoyl}-2-phenylsulfanyl-benzoic acid] |
| 87 | CN(c1ccc(Cl)cc1)c1ccc(C(=O)c2ccc([S+]([O-])c3ccc(F)c(F)c3)c(C(=O)O)c2)nc1 (centres unmarked) [Example 1:13, 5-{5-[(4-Chlorophenyl)methylamino]pyridine-2-carbonyl}-2-(3,4-difluorophenyl-sulfinyl)benzoic acid] |
| 73 | CN(c1ccc(Cl)cc1)c1ccc(C(=O)c2ccc(Sc3cccc(Cl)c3)c(C(=O)O)c2)cc1 [Example 2:2, 5-{4-[(4-Chlorophenyl)(methyl)amino]benzoyl}-2-(3-chlorophenylsulfanyl)-benzoic acid] |
| 76 | O=C(c1ccc(Sc2cccc(C(F)(F)F)c2)c(C(=O)O)c1)c1ccc(N(CC2CC2)c2ccc(Cl)cc2)cn1 [2:12, 5-{5-[(4-Chlorophenyl)cyclopropylmethylamino]pyridine-2-carbonyl}-2-(3-trifluoromethylphenylsulfanyl)benzoic acid] |
| 47 | O=C(c1ccc(Sc2ccccc2)c(C(=O)O)c1)c1ccc(N(CC2CC2)c2ccc(Cl)cc2)cn1 [2:14, 5-{5-[(4-Chlorophenyl)cyclopropylmethylamino]pyridine-2-carbonyl}-2-phenylsulfanylbenzoic acid] |
| 29 | CCCCCC[S+]([O-])c1ccc(C(=O)c2ccc(N(CC3CC3)c3ccc(Cl)cc3)cc2)cc1C(=O)O (centres unmarked) [Example 1:12, 5-{4-[(4-Chlorophenyl)cyclopropylmethylamino]benzoyl}-2-(1-hexylsulfinyl)-benzoic acid] |
| 66 | CN(c1ccc(Cl)cc1)c1ccc(C(=O)c2ccc([S+]([O-])c3ccc(Cl)cc3)c(C(=O)O)c2)cc1 (centres unmarked) [Example 1:2, 5-{4-[(4-Chlorophenyl)(methyl)amino]benzoyl}-2-(4-chlorophenylsulfinyl)benzoic acid] |

Same assay, conditions: value printed in the text of Example 4:1

| IC50 [nM] | Compound |
| --- | --- |
| 212 | CN(c1ccc(Cl)cc1)c1ccc(C(=O)c2cc(C(=O)O)cc([S+]([O-])c3ccc(F)c(F)c3)c2)cc1 (centres unmarked) [Example 4:1, 3-{4-[(4-Chlorophenyl)(methyl)amino]benzoyl}-5-(3,4-difluorophenylsulfinyl)-benzoic acid] |
